Values of other authors as cited in patent US20040131543A1, “Radiopharmaceuticals and radioactive microspheres for locoregional ablation of abnormal tissues” (priority 2002, published 2004).

Conditions: single intratracheal instillation, rats

## [Cl][Gd]([Cl])[Cl] [GdCl3, Gd chloride]
  Half-life of Gd deposited in lung tissue: extremely long half-life
